The values below are quoted from earlier work in US9540355B2, “Irciniastatin analogues” (priority 2013, dated 2017).

Series [1] relates to MCF-7. To be noted: breast MCF-7; cited from earlier work.
Series [2] has as its system HL-60(TB). To be noted: leukemia HL-60(TB); read-out: LC50 (the source's name); cited from earlier work.
Series [3] deals with K-562. Particulars: leukemia K-562; read-out: LC50 (the source's name); cited from earlier work.
Series [4] deals with SK-MEL-5. To be noted: melanoma SK-MEL-5; read-out: LC50 (the source's name); cited from earlier work.
In series [5] the test system is UACC-62. Particulars: melanoma UACC-62; read-out: LC50 (the source's name); cited from earlier work.
The test system of series [6] is MCF7. To be noted: breast cancer MCF7; read-out: LC50 (the source's name); cited from earlier work.
Series [7] has as its system T-47D. To be noted: breast cancer T-47D; read-out: LC50 (the source's name); cited from earlier work.
Series [8] relates to HCC-2998. To be noted: colon cancer HCC-2998; read-out: LC50 (the source's name); cited from earlier work.
Series [9] concerns HCT-116. To be noted: colon cancer HCT-116; read-out: LC50 (the source's name); cited from earlier work.
The test system of series [10] is panel of 60 human cancer cell lines. Particulars: cited from earlier work.

In the case of `C=C(C)C[C@H](OC)[C@H](O)C(=O)N[C@@H](OC)[C@@H]1C[C@@H](O)C(C)(C)[C@@H](C[C@H](O)[C@@H](C)[C@H]2Cc3c(C)c(O)cc(O)c3C(=O)O2)O1` [Irciniastatin A, (+)-Irciniastatin A], the “Growth Inhibition of Cancer Cell Lines (GI50)” value in [1] is 3.2 ng/mL. Also, the CC50 in series [2] is > 25 µM; in series [3] it was > 25 µM; in series [4], < 2.5 nM; in series [5] it was < 2.5 nM; in [6], > 25 µM; in series [7] it was 13.6 µM. Further, the CC50 in series [8] is 360 nM; in [9] it was < 2.5 nM. Besides, the “activity differential as compared to other cell lines within their respective subsets” value in series [10] (MDA-MB-35, SK-MEL-28, UACC-62, HCT-116 versus other lines of the subset) is “greater than 10,000 fold”. In addition, the activities entry in [10] (MDA-MB-35 breast cancer, SK-MEL-28 and UACC-62 melanoma, HCT-116 colon cancer cell lines) is reported as “low nanomolar range”.
